Values quoted from earlier work, collected in patent US20260209864A1, “METHOD FOR DETERMINING AND IMPROVING THE POTENTIAL EFFICACY OF ANTICANCER TREATMENT” (ASSISTANCE PUBLIQUE - HOPITAUX DE PARIS, priority 2022, published 2026).

What was measured:
[1] = test system: hematological malignancies; settings: early administration during allo-HSCT
[2] = after lung transplantation

risk of hematological malignancies relapses [1]: unexpectedly increased risk
SMILES: CC[C@H]1OC(=O)[C@H](C)[C@@H](O[C@H]2C[C@@](C)(OC)[C@@H](O)[C@H](C)O2)[C@H](C)[C@@H](O[C@@H]2O[C@H](C)C[C@H](N(C)C)[C@H]2O)[C@](C)(O)C[C@@H](C)CN(C)[C@H](C)[C@@H](O)[C@]1(C)O [azithromycin]
prevention of BOS [2]: prevents BOS
